Assay results from US20250214942A1, “INHIBITORS OF RECEPTOR INTERACTING PROTEIN KINASE I FOR THE TREATMENT OF DISEASE” (Board of Regents, The University of Texas System, priority 2019, published 2025).
Like-named read-outs stand apart in the source and are kept apart here.

Assays:
RIPK1 = RIPK1 (Homo sapiens (Human), UniProt Q13546); experiment: ADP-Glo kinase assay (RIPK1 activity, conversion of ATP to ADP); type: biochemical; conditions: 5 nM RIPK1, 50 μM ATP, 6 h reaction; read-out: RIPK1 Enzyme Avg IC50
Chain of RIPK1 (Q13546 1-327): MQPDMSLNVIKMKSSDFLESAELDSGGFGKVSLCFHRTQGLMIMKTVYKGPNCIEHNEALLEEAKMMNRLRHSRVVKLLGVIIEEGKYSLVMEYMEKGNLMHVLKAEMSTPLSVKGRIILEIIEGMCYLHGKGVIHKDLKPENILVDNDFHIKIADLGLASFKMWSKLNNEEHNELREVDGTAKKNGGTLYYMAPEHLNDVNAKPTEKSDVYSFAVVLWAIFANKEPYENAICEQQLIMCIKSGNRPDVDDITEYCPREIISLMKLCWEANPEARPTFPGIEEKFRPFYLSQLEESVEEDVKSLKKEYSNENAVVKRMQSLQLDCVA
Method in brief: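 RIPK1 (5 nM final) was preincubated 10 min at rt with 1:3-diluted compounds in HEPES pH 7.5/MgCl2/DTT/BSA/CHAPS buffer. ATP (50 μM final) was then added for 6 h, and ADP formed was read by ADP-Glo luminescence. IC50 values came from four-parameter logistic fitting.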

[1] = tested on: human monocytic cell line U937; experiment: Human U937 cellular necroptosis assay (TNFalpha + z-VAD-FMK, Cell Titer-Glo viability); type: cell-based; conditions: U937 cells, 25 ng/mL human TNFalpha + 25 μM z-VAD-FMK, read-out: hU937 Avg IC50
Method in brief: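 Readout is CellTiter-Glo 2.0 luminescence after 22 h at 37° C with compound, in cells triggered by human TNFalpha (25 ng/mL) and z-VAD-FMK (25 μM) in phenol red-free RPMI/10% FBS. Values are run-averaged IC50s from a four-parameter logistic curve.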

Compound	IC50 (RIPK1)	IC50 ([1]; Homo sapiens, U-937, 22 h)	IC50 ([1]; 22 h)
O=C(N1N=CCC1c1cc(F)cc(F)c1)C12CC(COc3ncc(F)cn3)(C1)C2 (centres unmarked) [Example 325, (5-(3,5-difluorophenyl)-4,5-dihydro-1H-pyrazol-1-yl)(3-(((5-fluoropyrimidin-2-yl)-oxy)methyl)bicyclo[1.1.1]-pentan-1-yl)methanone]	21 nM	193 nM	
O=C(N1N=CCC1c1cc(F)cc(F)c1)C12CC(COc3cc(F)cnc3F)(C1)C2 (centres unmarked) [Example 328, (5-(3,5-difluorophenyl)-4,5-dihydro-1H-pyrazol-1-yl)(3-(((2,5-difluoropyridin-3-yl)-oxy)methyl)bicyclo[1.1.1]-pentan-1-yl)methanone]	116 nM	409 nM	
O=C(N1N=CCC1c1cc(F)cc(F)c1)C12CC(COc3ccc(Br)cc3Cl)(C1)C2 (centres unmarked) [Example 330, (3-((4-bromo-2-chloro-phenoxy)methyl)bicyclo-[1.1.1]pentan-1-yl)(5-(3,5-difluorophenyl)-4,5-dihydro-1H-pyrazol-1-yl)methanone]	11 nM	21 nM	
N#Cc1ccc(OCC23CC(C(=O)N4N=CCC4c4cc(F)cc(F)c4)(C2)C3)c(F)c1 (centres unmarked) [Example 333, 4-((3-(5-(3,5-difluorophenyl)-4,5-dihydro-1H-pyrazole-1-carbonyl)bicyclo[1.1.1]pentan-1-yl)methoxy)-3-fluoro-benzonitrile]	16 nM	36 nM	
O=C(N1N=CCC1c1cc(F)cc(F)c1)C12CC(COc3ccc(F)cc3Cl)(C1)C2 (centres unmarked) [Example 334, (3-((2-chloro-4-fluoro-phenoxy)methyl)bicyclo-[1.1.1]pentan-1-yl)(5-(3,5-difluorophenyl)-4,5-dihydro-1H-pyrazol-1-yl)methanone]	18 nM	45 nM	
O=C(N1N=CCC1c1cc(F)cc(F)c1)C12CC(COc3ccccc3Cl)(C1)C2 (centres unmarked) [Example 336, (3-((2-chlorophenoxy)methyl)-bicyclo[1.1.1]pentan-1-yl)(5-(3,5-difluorophenyl)-4,5-dihydro-1H-pyrazol-1-yl)-methanone]	31 nM	55 nM	
Cc1ccccc1OCC12CC(C(=O)N3N=CCC3c3cc(F)cc(F)c3)(C1)C2 (centres unmarked) [Example 337, (5-(3,5-difluorophenyl)-4,5-dihydro-1H-pyrazol-1-yl)(3-((o-tolyloxy)methyl)bicyclo-[1.1.1]pentan-1-yl)methanone]	24 nM	140 nM	
(5-(3,5-difluorophenyl)-4,5-dihydro-1H-pyrazol-1-yl)(3-((6-fluoro-1H-benzo[d]-imidazol-1-yl)methyl)-bicyclo[1.1.1]pentan-1-yl)methanone and (5-(3,5-difluorophenyl)-4,5-dihydro-1H-pyrazol-1-yl)(3-((5-fluoro-1H-benzo[d]-imidazol-1-yl)methyl)-bicyclo[1.1.1]pentan-1-yl)methanone [Example 192]	80 nM		197 nM

Further lines, with some results ahead:

IC50 (RIPK1)	Compound	IC50 ([1]; Homo sapiens, U-937, 22 h)	IC50 ([1]; 22 h)
75 nM	COc1ccnc(OCC23CC(C(=O)N4N=CCC4c4cc(F)cc(F)c4)(C2)C3)n1 (centres unmarked) [Example 327, (5-(3,5-difluorophenyl)-4,5-dihydro-1H-pyrazol-1-yl)(3-(((4-methoxypyrimidin-2-yl)oxy)methyl)bicyclo[1.1.1]-pentan-1-yl)methanone]	381 nM	
13 nM	O=C(N1N=CCC1c1cc(F)cc(F)c1)C12CC(COc3ccc(Br)cc3F)(C1)C2 (centres unmarked) [Example 331, (3-((4-bromo-2-fluoro-phenoxy)methyl)bicyclo-[1.1.1]pentan-1-yl)(5-(3,5-difluorophenyl)-4,5-dihydro-1H-pyrazol-1-yl)methanone]	28 nM	
19 nM	O=C(N1N=CCC1c1cc(F)cc(F)c1)C12CC(COc3cccc(F)c3Cl)(C1)C2 (centres unmarked) [Example 332, (3-((2-chloro-3-fluoro-phenoxy)methyl)bicyclo-[1.1.1]pentan-1-yl)(5-(3,5-difluorophenyl)-4,5-dihydro-1H-pyrazol-1-yl)methanone]	33 nM	
18 nM	O=C(N1N=CCC1c1cc(F)cc(F)c1)C12CC(COc3ccc(F)cc3F)(C1)C2 (centres unmarked) [Example 335, (3-((2,4-difluorophenoxy)-methyl)bicyclo[1.1.1]pentan-1-yl)(5-(3,5-difluorophenyl)-4,5-dihydro-1H-pyrazol-1-yl)methanone]	46 nM	
26 nM	O=C(N1N=CCC1c1cc(F)cc(F)c1)C12CC(COc3cc(F)ccc3F)(C1)C2 (centres unmarked) [Example 338, (3-((2,5-difluorophenoxy)-methyl)bicyclo[1.1.1]pentan-1-yl)(5-(3,5-difluorophenyl)-4,5-dihydro-1H-pyrazol-1-yl)methanone]	165 nM	
